Reference: US20220348564A1, “PHENYL-[1,3]DIOXOLO[4,5-C]PYRIDINYL-PHENYL-, PHENYL-[1,3]DIOXOLO[4,5-C]PYRIDINYL-HETEROARYL-, OR PHENYL-(1,3)DIOXO[4,5-C]PYRIDINYL-PIPERIDINYL-METHYL-OXETANYLMETHYL-1H-BENZO[D]IMIDAZOLE-CARBOXYLIC ACID DERIVATIVES AND METHODS OF USING SAME” (Eccogene (Shanghai) Co., Ltd., priority 2021, published 2022)
pEC50: −log10 of the molar value.

Target: T1, human GLP-1 (Homo sapiens, UniProt P43220)
T1 construct: expressed in transfected cells
Experiment: h-GLP-1 activity assay (Cisbio cAMP Gs dynamic kit, HTRF)
Assay type: cell-based
Settings: HEK293 cells with stable expression of human GLP-1, relative EC50, 10 nM human GLP-1 = 100% response
Experimental: Human GLP-1 agonizing activity was detected in HEK293 cells with stable expression of human GLP-1 by Cisbio cAMP Gs dynamic kit (Catalog #62AM4PEC) according to manufacturer's protocol. Briefly, cells were collected and resuspended in assay buffer containing 0.1% BSA and 0.5 mM of IBMX at concentration to 2.5×10^5 cells/mL. Two μL 5× compound solution and 8 μL cell suspension were added to each well of low-volume 384 white assay plate. After 30 min incubation at 37° C., 5 μL cAMP-d2 working solution and 5 μL anti-cAMP antibody-cryptate were added to each well, and incubate at room temperature for 1 hr. Series dilution of cAMP was used as standard. Human GLP-1 (7-37) was used as positive control and 10 nM human GLP-1 was set as 100% response. HTRF signals were read at 665 and 615 nm with EnVision plate reader and calculated cAMP concentration by intrapolation to the standard curve. The EC50 value of the tested compounds was calculated by fitting the dose response curve using a 4-parameter non-linear regression routine and relative EC50 was presented in Table S.

T1 sequence (P43220 24-463): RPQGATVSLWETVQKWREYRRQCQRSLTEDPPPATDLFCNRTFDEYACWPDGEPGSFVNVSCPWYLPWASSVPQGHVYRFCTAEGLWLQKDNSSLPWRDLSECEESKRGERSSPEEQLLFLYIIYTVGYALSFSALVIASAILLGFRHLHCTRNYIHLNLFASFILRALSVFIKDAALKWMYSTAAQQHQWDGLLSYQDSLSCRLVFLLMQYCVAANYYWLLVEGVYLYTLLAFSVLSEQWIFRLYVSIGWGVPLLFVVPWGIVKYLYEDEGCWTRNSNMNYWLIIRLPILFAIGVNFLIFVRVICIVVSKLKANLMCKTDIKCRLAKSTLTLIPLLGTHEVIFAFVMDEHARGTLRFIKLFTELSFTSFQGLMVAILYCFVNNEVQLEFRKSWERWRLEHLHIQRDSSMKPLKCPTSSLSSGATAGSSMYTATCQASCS

| pEC50 | Compound |
| --- | --- |
| < 7.00 | CN1C(=O)C(c2ccc(Cl)cc2F)Oc2c(C3CCN(Cc4nc5ccc(C(=O)O)cc5n4C[C@@H]4CCO4)CC3)cccc21 (mixture of isomers) [Compound 105, 2-((4-(2-(4-chloro-2-fluorophenyl)-4-methyl-3-oxo-3,4-dihydro-2H-benzo[b][1,4]oxazin-8-yl)piperidin-1-yl)methyl)-1-(((S)-oxetan-2-yl)methyl)-1H-benzo[d]imidazole-6-carboxylic acid] |
| > 7.70 | CC1(c2c(F)cc(Cl)cc2F)Oc2cccc(C3=CCC(Cc4nc5ccc(C(=O)O)cc5n4C[C@@H]4CCO4)OC3)c2O1 (mixture of isomers) [Compound 109, 2-((5-(2-(4-chloro-2,6-difluorophenyl)-2-methylbenzo[d][1,3]dioxol-4-yl)-3,6-dihydro-2H-pyran-2-yl)methyl)-1-(((S)-oxetan-2-yl)methyl)-1H-benzo[d]imidazole-6-carboxylic acid] |
| < 7.00 | C[C@@]1(c2ccc(Cl)cc2F)Oc2cccc(-c3ccc(Cc4nc5ccc(C(=O)O)cc5n4C[C@@H]4CCO4)cc3)c2O1 (single isomer, unassigned) [Compound 3] |
| < 7.00 | C[C@@]1(c2ccc(Cl)cc2F)Oc2cccc(-c3ccc(Cc4nc5ccc(C(=O)O)cc5n4C[C@@H]4CCO4)nc3)c2O1 (single isomer, unassigned) [Compound 4] |
| > 7.70 | C[C@]1(c2ccc(Cl)cc2F)Oc2cccc(-c3ccc(Cc4nc5ccc(C(=O)O)cc5n4C[C@@H]4CCO4)nc3)c2O1 (single isomer, unassigned) [Compound 18] |
| > 7.70 | C[C@@]1(c2ccc(Cl)cc2F)Oc2cccc(C3CCN(Cc4nc5ccc(C(=O)NS(=O)(=O)C6CC6)cc5n4C[C@@H]4CCO4)CC3)c2O1 (single isomer, unassigned) [Compound 24] |
| < 7.00 | O=C(O)c1ccc2nc(C[C@@H]3CC[C@@H](c4cccc(OCc5ccc(Cl)cc5F)n4)CO3)n(Cc3cncs3)c2c1 (single isomer, unassigned) [Compound 29] |
| > 7.70 | N#Cc1ccc(COc2cccc([C@H]3CC[C@H](Cc4nc5ccc(C(=O)O)cc5n4C[C@@H]4CCO4)OC3)n2)c(F)c1 (single isomer, unassigned) [Compound 30] |
| > 7.70 | N#Cc1ccc(COc2cccc([C@@H]3CC[C@@H](Cc4nc5ccc(C(=O)O)cc5n4C[C@@H]4CCO4)OC3)n2)c(F)c1 (single isomer, unassigned) [Compound 31] |
| > 7.70 | N#Cc1ccc(COc2cccc([C@@H]3CC[C@H](Cc4nc5ccc(C(=O)O)cc5n4C[C@@H]4CCO4)OC3)n2)c(F)c1 (single isomer, unassigned) [Compound 32] |
| > 7.70 | N#Cc1ccc(COc2cccc([C@H]3CC[C@@H](Cc4nc5ccc(C(=O)O)cc5n4C[C@@H]4CCO4)OC3)n2)c(F)c1 (single isomer, unassigned) [Compound 33] |
| > 7.70 | C[C@@]1(c2ccc(Cl)cc2F)Oc2cccc(C3CCN(Cc4nc5ccc(-c6noc(=O)[nH]6)cc5n4C[C@@H]4CCO4)CC3)c2O1 (single isomer, unassigned) [Compound 37] |
| > 7.70 | C[C@]1(c2ccc(Cl)cn2)Oc2cccc(-c3ccc(Cc4nc5ccc(C(=O)O)cc5n4C[C@@H]4CCO4)cc3)c2O1 (single isomer, unassigned) [Compound 40] |
| < 7.00 | C[C@@]1(c2ccc(Cl)cn2)Oc2cccc(-c3ccc(Cc4nc5ccc(C(=O)O)cc5n4C[C@@H]4CCO4)cc3)c2O1 (single isomer, unassigned) [Compound 41] |
| > 7.70 | C[C@@]1(c2ccc(Cl)cn2)Oc2cccc(C34CCN(Cc5nc6ccc(C(=O)O)cc6n5C[C@@H]5CCO5)CC3C4)c2O1 (single isomer, unassigned) [Compound 72] |
| < 7.00 | C[C@@]1(c2ccc(Cl)cn2)Oc2cccc(N3CC4C(Cc5nc6ccc(C(=O)O)cc6n5C[C@@H]5CCO5)C4C3)c2O1 (single isomer, unassigned) [Compound 73] |
| < 7.00 | C[C@@]1(c2ccc(Cl)cn2)Oc2cccc(C3CC4CC3CN4Cc3nc4ccc(C(=O)O)cc4n3C[C@@H]3CCO3)c2O1 (single isomer, unassigned) [Compound 74] |
| < 7.00 | C[C@@]1(c2ccc(Cl)cn2)Oc2cccc(C34COC(Cc5nc6ccc(C(=O)O)cc6n5C[C@@H]5CCO5)CC3C4)c2O1 (single isomer, unassigned) [Compound 75] |
| > 7.70 | C[C@@]1(c2ccc(Cl)cn2)Oc2cccc(C3CCN(Cc4nc5ccc(C(=O)O)cc5n4C[C@@H]4CCO4)CC3(F)F)c2O1 (single isomer, unassigned) [Compound 76] |
| > 7.70 | C[C@@]1(c2ccc(Cl)cn2)Oc2cccc(N3CC=C(Cc4nc5ccc(C(=O)O)cc5n4C[C@@H]4CCO4)CC3)c2O1 (single isomer, unassigned) [Compound 77] |

| pEC50 | Compound |
| --- | --- |
| < 7.00 | C[C@@]1(c2ccc(Cl)cn2)Oc2cccc(C3=CC[C@@H](Cc4nc5ccc(C(=O)O)cc5n4C[C@@H]4CCO4)OC3)c2O1 (single isomer, unassigned) [Compound 79] |
| 7.00 to 7.70 | C[C@@]1(c2ccc(Cl)cn2)Oc2cccc(C3(F)CCN(Cc4nc5ccc(C(=O)O)cc5n4C[C@@H]4CCO4)CC3)c2O1 (single isomer, unassigned) [Compound 83] |
| 7.00 to 7.70 | C[C@@]1(c2ccc(Cl)cn2)Oc2cccc(C3C4CN(Cc5nc6ccc(C(=O)O)cc6n5C[C@@H]5CCO5)CC43)c2O1 (single isomer, unassigned) [Compound 85] |
| 7.00 to 7.70 | C[C@]1(c2ccc(Cl)cc2F)Oc2cccc(C3=CC[C@@H](Cc4nc5ccc(C(=O)O)cc5n4C[C@@H]4CCO4)OC3)c2O1 (single isomer, unassigned) [Compound 101] |
| < 7.00 | C[C@@]1(c2ccc(Cl)cn2)Oc2cccc([C@H]3CC[C@@H](Cc4nc5ccc(C(=O)O)cc5n4C[C@@H]4CCO4)OC3)c2O1 (single isomer, unassigned) [Compound 102] |
| 7.00 to 7.70 | C[C@@]1(c2ccc(Cl)cn2)Oc2cccc([C@@H]3CC[C@H](Cc4nc5ccc(C(=O)O)cc5n4C[C@@H]4CCO4)OC3)c2O1 (single isomer, unassigned) [Compound 103] |
| < 7.00 | C[C@@]1(c2ccc(Cl)cc2F)Oc2cccc(C3=CC[C@H](Cc4nc5ccc(C(=O)O)cc5n4C[C@@H]4CCO4)OC3)c2O1 (single isomer, unassigned) [Compound 106] |
| < 7.00 | C[C@]1(c2ccc(Cl)cc2F)Oc2cccc(C3=CC[C@H](Cc4nc5ccc(C(=O)O)cc5n4C[C@@H]4CCO4)OC3)c2O1 (single isomer, unassigned) [Compound 107] |
| > 7.70 | C[C@@]1(c2ccc(C3CC3)cn2)Oc2cccc(C3=CCC(Cc4nc5ccc(C(=O)O)cc5n4C[C@@H]4CCO4)OC3)c2O1 (single isomer, unassigned) [Compound 111] |
| > 7.70 | C[C@]1(c2ccc(Cl)cn2)Oc2cccc(C3=CC[C@H](Cc4nc5ccc(C(=O)O)cc5n4Cc4cncs4)OC3)c2O1 (single isomer, unassigned) [Compound 112] |
| 7.00 to 7.70 | C[C@]1(c2ccc(Cl)cn2)Oc2cccc(C3=CC[C@@H](Cc4nc5ccc(C(=O)O)cc5n4Cc4cncs4)OC3)c2O1 (single isomer, unassigned) [Compound 113] |
| 7.00 to 7.70 | C[C@]1(c2ccc(Cl)cn2)Oc2cccc(C3=CC[C@H](Cc4nc5ccc(C(=O)O)cc5n4Cc4cscn4)OC3)c2O1 (single isomer, unassigned) [Compound 114] |
| < 7.00 | C[C@]1(c2ccc(Cl)cn2)Oc2cccc(C3=CC[C@@H](Cc4nc5ccc(C(=O)O)cc5n4Cc4cscn4)OC3)c2O1 (single isomer, unassigned) [Compound 115] |
| > 7.70 | C[C@]1(c2ccc(Cl)cn2)Oc2cccc(C3=CC[C@H](Cc4nc5c(F)cc(C(=O)O)cc5n4Cc4cscn4)OC3)c2O1 (single isomer, unassigned) [Compound 116] |
| < 7.00 | C[C@]1(c2ccc(Cl)cn2)Oc2cccc(C3=CC[C@@H](Cc4nc5c(F)cc(C(=O)O)cc5n4Cc4cscn4)OC3)c2O1 (single isomer, unassigned) [Compound 117] |
| 7.00 to 7.70 | C[C@]1(c2ccc(Cl)cn2)Oc2cccc(C3=CC[C@@H](Cc4nc5c(F)cc(C(=O)O)cc5n4C[C@@H]4CCO4)OC3)c2O1 (single isomer, unassigned) [Compound 119] |
| > 7.70 | C[C@@]1(c2ccc(C(F)(F)F)cn2)Oc2cccc(C3=CCC(Cc4nc5ccc(C(=O)O)cc5n4C[C@@H]4CCO4)OC3)c2O1 (single isomer, unassigned) [Compound 121] |
| < 7.00 | C[C@]1(c2ccc(C(F)(F)F)cn2)Oc2cccc(C3=CCC(Cc4nc5c(F)cc(C(=O)O)cc5n4C[C@@H]4CCO4)OC3)c2O1 (single isomer, unassigned) [Compound 122] |
| > 7.70 | C[C@@]1(c2ccc(C3CC3)cn2)Oc2cccc(C3=CC[C@H](Cc4nc5c(F)cc(C(=O)O)cc5n4C[C@@H]4CCO4)OC3)c2O1 (single isomer, unassigned) [Compound 123] |
| < 7.00 | N#Cc1ccc(COc2nccc(C34CCC(Cc5nc6ccc(C(=O)O)cc6n5C[C@@H]5CCO5)(CC3)CC4)n2)c(F)c1 [Compound 34, (S)-2-((4-(2-((4-cyano-2-fluorobenzyl)oxy)pyrimidin-4-yl)bicyclo[2.2.2]octan-1-yl)methyl)-1-(oxetan-2-ylmethyl)-1H-benzo[d]imidazole-6-carboxylic acid] |
